Three molecules from PMC10507961, “Development of an amoxicillin-radix scutellaria extract formulation and evaluation of its pharmacokinetics in pigs” (BMC Veterinary Research, 2023) can be followed below.

One data set in a line: Angle of repose test. The format is physicochemical. The conditions noted are these: fixed funnel method. Here is the method: The fixed funnel method was used to measure the angle of repose. A funnel was fixed at a height of 3 cm above coordinate paper (the paper was placed on a horizontal table), and materials were added through the funnel until the top of the accumulated cone came into contact with the bottom of the funnel. The cone diameter was measured, and the angle of repose was calculated with the ratio of the distance between the funnel and paper to the cone radius as the tangent.

The nature of data set [1]: Moisture absorption percentage test. The format is physicochemical. Here is the method:
Sample dried to a constant weight (1 g) was placed in a 5 mL flat weighing bottle, shaken gently to evenly distribute the sample, weighed accurately, put it in a dryer containing supersaturated sodium chloride solution (the weighing bottle is opened), and weighed after 24 h (n = 3). The moisture absorption percentage was calculated according to the following formula: Moistureabsorptionpercentage(%)=weightaftermoistureabsorption-weightbeforemoistureabsorption/weightbeforemoistureabsorption×100%

The subject of another data set is Escherichia coli. The experiment in a line: Antibacterial susceptibility test (MIC), E. coli. The class given is cell-based. As to conditions: 15 strains, MIC range, read-out: AMO MIC. Here is the method:
(§1) Fifteen strains of E. coli, 16 strains of […], and 16 strains of […] were provided by the Department of Pharmacology and Toxicology of China Agricultural University. The minimum inhibitory concentration (MIC) of AMO and RSE was tested in the bacteria mentioned above; this method was previously reported by Jiarong Cao, et al.. Amoxicillin or baicalin was added to a sterile 96-well plate with multiple dilutions from low to high concentrations from the first well to the tenth well, with 100 μL per well. 100 μL of bacterial solution was added to a concentration of 1 × 10^6 CFU/mL. 200 μL of the bacterial solution was added to the 11th well as positive control, and 200 μL of broth was added to the 12th well as a negative control. The MIC test of quality control bacteria was carried out at the same time in each test. The 96-well plate was placed in a 37 ℃ incubator for 18 to 24 h, and the results were observed and recorded. The experiment was repeated three times.

A further data set has as its system Streptococcus. The experiment in a line: Antibacterial susceptibility test (MIC), Streptococcus. The format is cell-based. The conditions noted are these: 16 strains, MIC range. How it is done:
as §1

For a further data set, the system named is Salmonella. Nature of the data set: Antibacterial susceptibility test (MIC), Salmonella. The format is cell-based. The conditions noted are these: read-out: AMO MIC. Here is the method:
The minimum inhibitory concentration (MIC) of AMO and RSE was tested in the bacteria mentioned above; this method was previously reported by Jiarong Cao, et al..
Amoxicillin or baicalin was added to a sterile 96-well plate with multiple dilutions from low to high concentrations from the first well to the tenth well, with 100 μL per well. 100 μL of bacterial solution was added to a concentration of 1 × 10^6 CFU/mL. 200 μL of the bacterial solution was added to the 11th well as positive control, and 200 μL of broth was added to the 12th well as a negative control. The MIC test of quality control bacteria was carried out at the same time in each test. The 96-well plate was placed in a 37 ℃ incubator for 18 to 24 h, and the results were observed and recorded. The experiment was repeated three times.

A short description of data set [2]: Second pharmacokinetic study in pigs (three doses of AMO-RSE powder). As to conditions: p.o. AMO-RSE powder, tested dose range (AMO 10–30 mg/kg, BCL 5–15 mg/kg). The class given is in vivo. An excerpt: Twelve healthy Landrace × Large White hybrid pigs, half male and half female, with an average body weight of 15 ± 3.2 kg (range 11–18 kg), were randomly divided into two groups (three male and three female pigs in each group) for pharmacokinetics experiments and were purchased from JuCong agriculture, Nanning, Guangxi. Commercial feed and water free of antibiotics and target drugs were freely available to the pigs housed individually in 12 pig pens. After the experiment, the pigs were released.
Pig jugular vein blood was collected in an anticoagulant tube, and centrifuged at 3000 rpm for 10 min, and the separated plasma was stored at -20 ℃. The plasma sample was placed at room temperature for natural thawing, and it was mixed evenly with a vortex, 1 mL of the plasma sample was accurately measure and placed it in a 10 mL centrifuge tube with a cover. […]
Using HPLC to measured the content of AMO. […] The limits of detection and quantification of amoxicillin in the plasma were 0.03 and 0.1 µg/ml, respectively.
The content of BCL were measured using HPLC. […] The limits of detection and quantification of […] in the plasma were 0.03 and 0.1 µg/ml, respectively. […]
The concentrations of AMO and BCL in plasma at each time point are expressed as the arithmetic mean ± SD. The pharmacokinetic parameters were calculated by using noncompartmental analysis based on statistical moment theory. […]

SMILES strings stand for the structures. Converted amounts (≈) assume the structure as drawn.

As to `OC[C@H]1OC(O)[C@H](O)[C@@H](O)[C@@H]1O` (some centres unmarked) [glucose], the angle of repose in “Angle of repose test” is 41.44 °. Besides, in data set [1], the “moisture absorption percentage, rank among five excipients” value was “lowest”.
In the case of `CC1(C)S[C@@H]2[C@H](NC(=O)[C@H](N)c3ccc(O)cc3)C(=O)N2[C@H]1C(=O)O` [AMO, Amoxicillin], the results for the minimal inhibitory concentration (MIC) in the data set on Escherichia coli, with Streptococcus (read-out: AMO MIC) and with Salmonella were 1 to 8 µg/mL (≈ 2.74 to 21.9 µM), 0.5 to 64 µg/mL (≈ 1.37 to 175 µM) and 0.25 to 32 µg/mL (≈ 0.684 to 87.6 µM), respectively. In addition, the “AMO MIC” value with Streptococcus was 1 to 128 µg/mL. The “dose linearity of pharmacokinetics” value in data set [2] is listed as “linear pharmacokinetic properties”.
`O=C(O)[C@H]1O[C@@H](Oc2cc3oc(-c4ccccc4)cc(=O)c3c(O)c2O)[C@H](O)[C@@H](O)[C@@H]1O` [BCL, baicalin]: the “dose linearity of pharmacokinetics” value in data set [2] was “linear pharmacokinetic properties”.
